The structures appear in SMILES notation.

Chain of MAPKAPK5 (human) (Q8IW41 whole entry, looked up): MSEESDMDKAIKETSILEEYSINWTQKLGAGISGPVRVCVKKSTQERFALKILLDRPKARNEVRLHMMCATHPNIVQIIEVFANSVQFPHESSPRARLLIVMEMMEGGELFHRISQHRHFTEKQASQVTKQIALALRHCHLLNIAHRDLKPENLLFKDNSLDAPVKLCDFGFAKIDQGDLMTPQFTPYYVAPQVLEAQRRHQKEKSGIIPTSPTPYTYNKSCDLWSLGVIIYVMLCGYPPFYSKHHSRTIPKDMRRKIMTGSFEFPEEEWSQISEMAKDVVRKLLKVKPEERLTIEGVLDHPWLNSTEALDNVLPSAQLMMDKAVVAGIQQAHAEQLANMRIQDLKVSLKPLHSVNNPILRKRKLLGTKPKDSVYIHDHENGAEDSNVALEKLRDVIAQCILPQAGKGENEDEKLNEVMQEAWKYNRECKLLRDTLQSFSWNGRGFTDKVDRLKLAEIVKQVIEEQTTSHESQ
Chain of PDPK1 (human) (O15530 whole entry, looked up): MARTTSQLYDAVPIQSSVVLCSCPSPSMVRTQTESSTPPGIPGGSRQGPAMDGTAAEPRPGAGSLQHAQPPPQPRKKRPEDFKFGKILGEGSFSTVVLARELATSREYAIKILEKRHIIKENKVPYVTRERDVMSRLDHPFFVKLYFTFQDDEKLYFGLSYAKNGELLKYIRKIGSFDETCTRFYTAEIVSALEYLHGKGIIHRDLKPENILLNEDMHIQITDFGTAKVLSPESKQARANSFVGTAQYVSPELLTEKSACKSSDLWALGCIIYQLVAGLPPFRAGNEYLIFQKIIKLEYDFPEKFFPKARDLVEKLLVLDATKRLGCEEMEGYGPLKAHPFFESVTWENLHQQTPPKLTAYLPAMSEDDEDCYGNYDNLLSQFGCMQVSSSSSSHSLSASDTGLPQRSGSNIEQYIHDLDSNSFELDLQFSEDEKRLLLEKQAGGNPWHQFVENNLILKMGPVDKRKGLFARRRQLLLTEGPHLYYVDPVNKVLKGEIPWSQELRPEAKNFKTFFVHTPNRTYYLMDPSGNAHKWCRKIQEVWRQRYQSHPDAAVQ
Chain of PAK6 (human) (Q9NQU5 whole entry, looked up): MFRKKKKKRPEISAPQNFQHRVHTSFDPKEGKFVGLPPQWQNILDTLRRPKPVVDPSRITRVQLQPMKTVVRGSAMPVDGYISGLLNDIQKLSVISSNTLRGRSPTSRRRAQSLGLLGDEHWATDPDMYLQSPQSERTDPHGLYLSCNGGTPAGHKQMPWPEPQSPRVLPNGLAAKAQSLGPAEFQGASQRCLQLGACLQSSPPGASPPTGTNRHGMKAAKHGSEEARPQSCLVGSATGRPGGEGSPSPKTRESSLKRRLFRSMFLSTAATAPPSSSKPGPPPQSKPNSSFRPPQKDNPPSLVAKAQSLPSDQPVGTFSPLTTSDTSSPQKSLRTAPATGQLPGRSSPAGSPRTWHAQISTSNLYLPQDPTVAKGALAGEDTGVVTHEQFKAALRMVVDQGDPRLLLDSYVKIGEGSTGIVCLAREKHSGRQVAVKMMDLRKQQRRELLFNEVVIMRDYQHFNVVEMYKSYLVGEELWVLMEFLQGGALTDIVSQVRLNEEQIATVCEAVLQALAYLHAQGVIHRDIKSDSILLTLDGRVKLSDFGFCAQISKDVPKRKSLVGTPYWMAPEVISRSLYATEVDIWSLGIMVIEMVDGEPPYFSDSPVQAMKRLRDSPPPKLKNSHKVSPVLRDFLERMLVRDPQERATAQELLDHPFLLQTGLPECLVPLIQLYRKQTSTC

One assay has as its target MAPKAPK5 (human) (UniProt Q8IW41). Put plainly: radiometric filter-binding kinase assay, Kinase HotSpot. Particulars: compound 0.5 µM; ATP 10 µM.
Broadly, the residual activity is the signal under treatment as a percentage of the control signal. On to `Nc1nccc(-c2c(-c3ccc(F)cc3)ncn2C2CCNCC2)n1`, for which the residual activity was determined as 94%.
Same read-out and setting: in the case of `COc1ccc(OC)c2c(=S)c3ccccc3[nH]c12` it was 109%; in that of `COc1cc2ncc(-c3ccccc3)nc2cc1OC`, 88.1%.

In the next assay the target is MARK1 (human) (UniProt Q9P0L2). Described as above. To be noted: compound 0.5 µM; ATP 10 µM.
As for `Nc1nccc(-c2c(-c3ccc(F)cc3)ncn2C2CCNCC2)n1`, the residual activity stood at 97.9%.
The same measure, in the same setting: in the case of `COc1ccc(OC)c2c(=S)c3ccccc3[nH]c12` it was 88.3%; in that of `COc1cc2ncc(-c3ccccc3)nc2cc1OC`, 92.6%.

The target of another assay is MARK2 (human) (UniProt Q7KZI7). The description is as above. To be noted: compound 0.5 µM; ATP 10 µM.
Chain of MARK2 (human) (Q7KZI7 whole entry, looked up): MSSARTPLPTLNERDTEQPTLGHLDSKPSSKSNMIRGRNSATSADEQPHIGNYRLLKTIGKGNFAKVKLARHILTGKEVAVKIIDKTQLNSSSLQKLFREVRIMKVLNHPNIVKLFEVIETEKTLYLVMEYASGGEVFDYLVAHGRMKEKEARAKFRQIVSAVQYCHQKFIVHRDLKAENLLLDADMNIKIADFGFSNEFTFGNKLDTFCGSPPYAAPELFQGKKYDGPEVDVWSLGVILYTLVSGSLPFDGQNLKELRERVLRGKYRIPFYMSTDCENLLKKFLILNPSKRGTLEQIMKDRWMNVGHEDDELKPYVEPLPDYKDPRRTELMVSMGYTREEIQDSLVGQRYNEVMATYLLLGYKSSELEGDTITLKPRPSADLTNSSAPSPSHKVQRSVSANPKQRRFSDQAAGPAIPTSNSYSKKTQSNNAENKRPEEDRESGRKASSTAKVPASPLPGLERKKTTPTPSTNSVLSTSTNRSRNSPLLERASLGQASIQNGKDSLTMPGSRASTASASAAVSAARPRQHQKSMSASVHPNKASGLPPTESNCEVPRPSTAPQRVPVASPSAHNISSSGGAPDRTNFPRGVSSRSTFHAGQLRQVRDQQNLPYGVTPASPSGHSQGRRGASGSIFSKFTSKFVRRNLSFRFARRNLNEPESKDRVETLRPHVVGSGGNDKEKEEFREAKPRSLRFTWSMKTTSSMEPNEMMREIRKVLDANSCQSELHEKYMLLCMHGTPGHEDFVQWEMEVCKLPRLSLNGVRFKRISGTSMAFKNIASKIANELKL
Regarding `Nc1nccc(-c2c(-c3ccc(F)cc3)ncn2C2CCNCC2)n1`, the residual activity was 97%.
Turning to `COc1ccc(OC)c2c(=S)c3ccccc3[nH]c12`, the residual activity was 93.9%.
On to `COc1cc2ncc(-c3ccccc3)nc2cc1OC`, for which the residual activity was 112%.

The next assay concerns the target MLTK (human) (UniProt Q9NYL2). The description is as above. To be noted: compound 0.5 µM; ATP 10 µM.
As to `Nc1nccc(-c2c(-c3ccc(F)cc3)ncn2C2CCNCC2)n1`, the residual activity was found to be 98%.
With `COc1ccc(OC)c2c(=S)c3ccccc3[nH]c12`, the residual activity was 94%.
Still for that read-out and setting: in the case of `COc1cc2ncc(-c3ccccc3)nc2cc1OC` it was 94.7%.

The next assay addresses MUSK (human) (UniProt O15146). The description is as above. To be noted: compound 0.5 µM; ATP 10 µM.
As to `Nc1nccc(-c2c(-c3ccc(F)cc3)ncn2C2CCNCC2)n1`, the residual activity stood at 86.9%.
Same read-out and setting: then `COc1ccc(OC)c2c(=S)c3ccccc3[nH]c12`, with 87.3%.
Turning to `COc1cc2ncc(-c3ccccc3)nc2cc1OC`, the residual activity amounted to 95.9%.

The target in a further assay is MYLK2 (human) (UniProt Q9H1R3). The description is as above. Particulars: compound 0.5 µM; ATP 10 µM.
Chain of MYLK2 (human) (Q9H1R3 whole entry, looked up): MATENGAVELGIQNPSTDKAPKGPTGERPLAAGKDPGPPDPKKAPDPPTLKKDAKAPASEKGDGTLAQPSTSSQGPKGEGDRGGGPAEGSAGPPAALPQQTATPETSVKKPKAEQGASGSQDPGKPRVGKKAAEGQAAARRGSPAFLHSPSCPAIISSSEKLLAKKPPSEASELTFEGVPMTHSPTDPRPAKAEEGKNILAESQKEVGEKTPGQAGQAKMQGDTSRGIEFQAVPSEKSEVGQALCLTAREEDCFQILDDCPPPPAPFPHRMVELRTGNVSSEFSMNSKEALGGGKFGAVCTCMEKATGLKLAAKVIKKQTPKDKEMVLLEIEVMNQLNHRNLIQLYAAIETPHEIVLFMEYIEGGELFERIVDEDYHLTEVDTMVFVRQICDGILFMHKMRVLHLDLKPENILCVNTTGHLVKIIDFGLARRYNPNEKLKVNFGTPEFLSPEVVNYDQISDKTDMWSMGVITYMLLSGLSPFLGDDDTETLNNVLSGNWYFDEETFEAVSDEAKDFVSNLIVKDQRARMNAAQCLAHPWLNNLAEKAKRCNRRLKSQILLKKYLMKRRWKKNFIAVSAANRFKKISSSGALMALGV
Regarding `Nc1nccc(-c2c(-c3ccc(F)cc3)ncn2C2CCNCC2)n1`, the residual activity worked out at 103%.
On to `COc1ccc(OC)c2c(=S)c3ccccc3[nH]c12`, for which the residual activity was 95.7%.
As to `COc1cc2ncc(-c3ccccc3)nc2cc1OC`, the residual activity was determined as 100%.

For a further assay, the target named is NLK (human) (UniProt Q9UBE8). The description is as above. Particulars: compound 0.5 µM; ATP 10 µM.
Chain of NLK (human) (Q9UBE8 whole entry, looked up): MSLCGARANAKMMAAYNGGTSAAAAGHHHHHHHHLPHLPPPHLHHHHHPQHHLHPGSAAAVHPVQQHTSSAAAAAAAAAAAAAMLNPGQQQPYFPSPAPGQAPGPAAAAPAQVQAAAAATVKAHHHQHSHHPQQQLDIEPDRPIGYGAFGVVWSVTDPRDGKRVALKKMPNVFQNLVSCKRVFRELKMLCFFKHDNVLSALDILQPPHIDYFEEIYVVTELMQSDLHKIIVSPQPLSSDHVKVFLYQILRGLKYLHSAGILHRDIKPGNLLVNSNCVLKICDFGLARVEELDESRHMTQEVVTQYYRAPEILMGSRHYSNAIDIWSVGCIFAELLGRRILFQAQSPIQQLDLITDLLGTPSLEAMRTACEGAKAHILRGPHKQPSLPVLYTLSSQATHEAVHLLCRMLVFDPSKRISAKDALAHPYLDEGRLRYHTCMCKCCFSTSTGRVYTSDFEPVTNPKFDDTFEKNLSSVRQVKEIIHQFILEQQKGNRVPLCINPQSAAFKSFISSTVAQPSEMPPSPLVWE
For `Nc1nccc(-c2c(-c3ccc(F)cc3)ncn2C2CCNCC2)n1`, the residual activity turned out to be 12.1%.
In the case of `COc1ccc(OC)c2c(=S)c3ccccc3[nH]c12`, the residual activity worked out at 98.8%.
The same measure, in the same setting: then `COc1cc2ncc(-c3ccccc3)nc2cc1OC`, with 89.3%.

Another assay has as its target NTRK1 (human) (UniProt P04629). The description is as above. To be noted: compound 0.5 µM; ATP 10 µM.
As to `Nc1nccc(-c2c(-c3ccc(F)cc3)ncn2C2CCNCC2)n1`, the residual activity is 100%.
The same measure, in the same setting: in the case of `COc1ccc(OC)c2c(=S)c3ccccc3[nH]c12` it was 87.5%; in that of `COc1cc2ncc(-c3ccccc3)nc2cc1OC`, 93.2%.

A further assay concerns the target PAK6 (human) (UniProt Q9NQU5). Described as above. To be noted: compound 0.5 µM; ATP 10 µM.
Turning to `Nc1nccc(-c2c(-c3ccc(F)cc3)ncn2C2CCNCC2)n1`, the residual activity is 111%.
Same read-out and setting: in the case of `COc1ccc(OC)c2c(=S)c3ccccc3[nH]c12` it was 112%; in that of `COc1cc2ncc(-c3ccccc3)nc2cc1OC`, 82.8%.

A further assay concerns the target PDPK1 (human) (UniProt O15530). Described as above. Particulars: compound 0.5 µM; ATP 10 µM.
In the case of `Nc1nccc(-c2c(-c3ccc(F)cc3)ncn2C2CCNCC2)n1`, the residual activity was 103%.
For the compound `COc1ccc(OC)c2c(=S)c3ccccc3[nH]c12`, the residual activity is 94.9%.
The same measure, in the same setting: in the case of `COc1cc2ncc(-c3ccccc3)nc2cc1OC` it was 92.6%.

The target in another assay is PHKG2 (human) (UniProt P15735). The assay is described as above. To be noted: compound 0.5 µM; ATP 10 µM.
`Nc1nccc(-c2c(-c3ccc(F)cc3)ncn2C2CCNCC2)n1`: the residual activity was 104%.
With `COc1ccc(OC)c2c(=S)c3ccccc3[nH]c12`, the residual activity is 94.6%.
On the same count and under the same terms, then `COc1cc2ncc(-c3ccccc3)nc2cc1OC`, with 97.1%.

For another assay, the target named is PLK1 (human) (UniProt P53350). Described as above. Particulars: compound 0.5 µM; ATP 10 µM.
Consider `Nc1nccc(-c2c(-c3ccc(F)cc3)ncn2C2CCNCC2)n1`, for which the residual activity was found to be 101%.
On the same count and under the same terms, then `COc1ccc(OC)c2c(=S)c3ccccc3[nH]c12`, with 93.6%.
`COc1cc2ncc(-c3ccccc3)nc2cc1OC`: the residual activity is 98.5%.

The target of a further assay is PRKACA (human) (UniProt P17612). The description is as above. To be noted: compound 0.5 µM; ATP 10 µM.
For the compound `Nc1nccc(-c2c(-c3ccc(F)cc3)ncn2C2CCNCC2)n1`, the residual activity came out at 83%.
Same read-out and setting: in the case of `COc1ccc(OC)c2c(=S)c3ccccc3[nH]c12` it was 97.5%.
The same measure, in the same setting: in the case of `COc1cc2ncc(-c3ccccc3)nc2cc1OC` it was 99.4%.

In another assay the target is RPS6KA2 KD1 KD2 (human) (UniProt Q15349). The assay is described as above. To be noted: compound 0.5 µM; ATP 10 µM.
Chain of RPS6KA2 KD1 KD2 (human) (Q15349 whole entry, looked up): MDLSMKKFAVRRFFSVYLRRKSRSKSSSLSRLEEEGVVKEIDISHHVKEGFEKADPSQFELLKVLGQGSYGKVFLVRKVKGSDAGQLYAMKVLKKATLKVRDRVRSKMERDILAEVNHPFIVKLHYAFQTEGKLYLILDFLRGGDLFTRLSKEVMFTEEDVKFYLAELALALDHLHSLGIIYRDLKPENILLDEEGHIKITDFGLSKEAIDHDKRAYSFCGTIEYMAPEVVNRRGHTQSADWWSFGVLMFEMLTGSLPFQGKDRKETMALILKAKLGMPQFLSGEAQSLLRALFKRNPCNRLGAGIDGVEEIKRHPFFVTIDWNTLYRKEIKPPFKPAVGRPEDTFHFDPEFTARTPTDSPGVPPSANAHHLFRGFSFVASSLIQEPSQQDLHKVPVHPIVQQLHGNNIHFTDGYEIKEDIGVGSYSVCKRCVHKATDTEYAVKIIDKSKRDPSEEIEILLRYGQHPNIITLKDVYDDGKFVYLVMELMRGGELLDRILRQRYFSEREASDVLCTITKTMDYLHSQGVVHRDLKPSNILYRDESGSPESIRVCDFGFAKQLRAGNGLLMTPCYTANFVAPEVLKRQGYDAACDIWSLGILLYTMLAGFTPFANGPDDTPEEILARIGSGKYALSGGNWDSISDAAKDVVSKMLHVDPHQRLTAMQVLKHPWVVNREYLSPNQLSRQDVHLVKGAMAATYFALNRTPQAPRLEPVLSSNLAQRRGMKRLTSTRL
With `Nc1nccc(-c2c(-c3ccc(F)cc3)ncn2C2CCNCC2)n1`, the residual activity stood at 99.3%.
Still for that read-out and setting: in the case of `COc1ccc(OC)c2c(=S)c3ccccc3[nH]c12` it was 87.4%.
The same measure, in the same setting: in the case of `COc1cc2ncc(-c3ccccc3)nc2cc1OC` it was 85.4%.

The next assay deals with RPS6KB2 (human) (UniProt Q9UBS0). The assay is described as above. Particulars: compound 0.5 µM; ATP 10 µM.
Consider `Nc1nccc(-c2c(-c3ccc(F)cc3)ncn2C2CCNCC2)n1`, for which the residual activity was determined as 90.9%.
Still for that read-out and setting: then `COc1ccc(OC)c2c(=S)c3ccccc3[nH]c12`, with 105%.
The same measure, in the same setting: in the case of `COc1cc2ncc(-c3ccccc3)nc2cc1OC` it was 104%.

Another assay deals with SRPK1 (human) (UniProt Q96SB4). Described as above. Particulars: compound 0.5 µM; ATP 10 µM.
Chain of SRPK1 (human) (Q96SB4 whole entry, looked up): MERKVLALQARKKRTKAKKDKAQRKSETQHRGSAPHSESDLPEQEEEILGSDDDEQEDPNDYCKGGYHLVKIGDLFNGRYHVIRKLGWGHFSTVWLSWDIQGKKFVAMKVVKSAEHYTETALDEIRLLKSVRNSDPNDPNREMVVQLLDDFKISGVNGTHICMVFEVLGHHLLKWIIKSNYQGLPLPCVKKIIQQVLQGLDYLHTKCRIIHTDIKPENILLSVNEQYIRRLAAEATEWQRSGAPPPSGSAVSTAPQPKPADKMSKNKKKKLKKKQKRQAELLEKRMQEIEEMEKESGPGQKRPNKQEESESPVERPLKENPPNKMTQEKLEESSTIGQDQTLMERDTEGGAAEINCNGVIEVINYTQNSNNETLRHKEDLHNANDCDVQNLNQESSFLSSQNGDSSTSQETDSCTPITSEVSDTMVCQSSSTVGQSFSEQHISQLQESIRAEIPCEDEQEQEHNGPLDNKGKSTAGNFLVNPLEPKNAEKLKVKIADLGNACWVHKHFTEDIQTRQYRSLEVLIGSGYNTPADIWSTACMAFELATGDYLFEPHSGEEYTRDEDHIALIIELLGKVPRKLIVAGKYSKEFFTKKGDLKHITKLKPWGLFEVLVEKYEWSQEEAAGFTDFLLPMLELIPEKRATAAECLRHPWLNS
Regarding `Nc1nccc(-c2c(-c3ccc(F)cc3)ncn2C2CCNCC2)n1`, the residual activity was 103%.
The same measure, in the same setting: then `COc1ccc(OC)c2c(=S)c3ccccc3[nH]c12`, with 99.9%.
On the same count and under the same terms, in the case of `COc1cc2ncc(-c3ccccc3)nc2cc1OC` it was 105%.

For another assay, the target named is STK39 (human) (UniProt Q9UEW8). Described as above. Particulars: compound 0.5 µM; ATP 10 µM.
For the compound `Nc1nccc(-c2c(-c3ccc(F)cc3)ncn2C2CCNCC2)n1`, the residual activity turned out to be 93.5%.
Same read-out and setting: then `COc1ccc(OC)c2c(=S)c3ccccc3[nH]c12`, with 94.4%.
In the case of `COc1cc2ncc(-c3ccccc3)nc2cc1OC`, the residual activity is 88%.

Another assay deals with STK4 (human) (UniProt Q13043). The description is as above. To be noted: compound 0.5 µM; ATP 10 µM.
For `Nc1nccc(-c2c(-c3ccc(F)cc3)ncn2C2CCNCC2)n1`, the residual activity amounted to 103%.
Still for that read-out and setting: in the case of `COc1ccc(OC)c2c(=S)c3ccccc3[nH]c12` it was 96.8%.
For `COc1cc2ncc(-c3ccccc3)nc2cc1OC`, the residual activity was determined as 96.3%.

For another assay, the target named is TAOK2 (human) (UniProt Q9UL54). The description is as above. Particulars: compound 0.5 µM; ATP 10 µM.
Consider `Nc1nccc(-c2c(-c3ccc(F)cc3)ncn2C2CCNCC2)n1`, for which the residual activity turned out to be 98%.
The same measure, in the same setting: then `COc1ccc(OC)c2c(=S)c3ccccc3[nH]c12`, with 100%.
Still for that read-out and setting: then `COc1cc2ncc(-c3ccccc3)nc2cc1OC`, with 95.9%.

The target of another assay is TAOK3 (human) (UniProt Q9H2K8). The assay is described as above. Particulars: compound 0.5 µM; ATP 10 µM.
On to `Nc1nccc(-c2c(-c3ccc(F)cc3)ncn2C2CCNCC2)n1`, for which the residual activity was found to be 95.3%.
On to `COc1ccc(OC)c2c(=S)c3ccccc3[nH]c12`, for which the residual activity is 92.7%.
Same read-out and setting: in the case of `COc1cc2ncc(-c3ccccc3)nc2cc1OC` it was 88.9%.

For the next assay, the target named is YES1 (human) (UniProt P07947). The description is as above. Particulars: compound 0.5 µM; ATP 10 µM.
With `Nc1nccc(-c2c(-c3ccc(F)cc3)ncn2C2CCNCC2)n1`, the residual activity came to 85.3%.
Same read-out and setting: then `COc1ccc(OC)c2c(=S)c3ccccc3[nH]c12`, with 89.2%.
As for `COc1cc2ncc(-c3ccccc3)nc2cc1OC`, the residual activity amounted to 96.1%.

The values are drawn from the kinase profiling compilation of Christmann-Franck et al. (2016).
